Earlier results on 122 compounds are cited in the CATMoS acute toxicity set (Mansouri et al. 2021).

Several values for one entry are separate records, joined by “and”; a condition that tells them apart may be missing. Equal entries are not always repeated.

What is called LD50 is the dose at which mortality reaches 50%.

This data set can be described thus: rat acute oral toxicity. Particulars: in vivo.
With `COP(=S)(OC)SC1CCC2C=CCC1S2` (configuration not stated), the LD50 was 1000 mg/kg. For the compound `CCOP(=O)(OCC)Oc1ccc2c(C)c(Cl)c(=O)oc2c1`, the LD50 was 10 mg/kg. For the compound `CCN(CC)N=Nc1cccnc1`, the median lethal dose (LD50) is 210 mg/kg. For the compound `Cc1ccccc1N(CCO)CCO`, the LD50 was 2200 mg/kg. Consider `COc1c(C(C)(C)C)cc([N+](=O)[O-])c(C)c1[N+](=O)[O-]`, for which the LD50 is 339 mg/kg.

Turning to `CCCCC(CC)COC(C[n+]1ccccc1)c1cccc(Cl)c1` (configuration not stated), the LD50 is 250 mg/kg. As to `CCOP(=O)(O)O`, the LD50 was 1600 mg/kg. With `Cc1cc(OCC(=O)N[C@@H]2C(=O)N3[C@@H]2SC(C)(C)[C@@H]3C(=O)O)ccc1Cl`, the LD50 was 4000 mg/kg. `O=[N+]([O-])O[C@@H]1CO[C@H]2[C@@H]1OC[C@@H]2O`: the LD50 was 2010 mg/kg. Turning to `COP(=S)(OC)SCCSC`, the LD50 is 75 mg/kg. Take `COC(=O)N(CCCl)N=O`: the LD50 is 20 mg/kg. On to `Nc1ncnc2c1ncn2[C@@H]1O[C@H](COP(=O)(O)O)[C@@H](O)[C@H]1O`, for which the LD50 is 11200 mg/kg. Take `O=C(CN1CCOCC1)N/N=C/c1ccc([N+](=O)[O-])o1`: the LD50 was 420 mg/kg. For `ClCc1ccccc1CCl`, the LD50 was 2260 mg/kg. In the case of `C=Cc1ccccn1`, the LD50 is 100 mg/kg. In the case of `O=C1CSC2(CCN(CCCN3c4ccccc4Sc4ccc(Cl)cc43)CC2)N1`, the LD50 is 3800 mg/kg.

Consider `C[C@H]1C(=O)O[C@@H]2CCN3CC=C(COC(=O)[C@](C)(O)[C@]1(C)O)[C@H]23`, for which the LD50 was 66 mg/kg. Take `CCCCCCCCCCCCCCCC[N+](C)(C)C`: the LD50 was 410 mg/kg. In the case of `COc1cc(-c2ccc(N=Nc3c(O)ccc4ccccc34)c(OC)c2)ccc1N=Nc1ccc2c(S(=O)O)cc(S(=O)(=O)O)c(N)c2c1`, the LD50 is 6700 mg/kg. Turning to `CCOc1ccccc1N1CCN(CCCCc2ccc3c(c2)CCC(=O)N3)CC1`, the LD50 was 500 mg/kg. Take `Cc1ccc([N+](=O)[O-])cc1S(=O)(=O)Cl`: the LD50 is 7470 mg/kg. Take `Clc1cccc(Cl)c1N=C1NCCN1`: the median lethal dose (LD50) was 126 mg/kg.

As for `CCOC(=O)NNc1nncc2ccccc12`, the LD50 is 318 mg/kg and 598 mg/kg. For `Cc1c(C(=O)N(C)C)nnn1-c1ccccc1`, the LD50 was 500 mg/kg.

`CC=CC(C)OC` (configuration not stated): the LD50 was 1210 mg/kg. With `CN(C)CCCN1c2ccccc2CCc2ccc(Cl)cc21`, the LD50 is 914 mg/kg and 613 mg/kg. `CCCn1c(=O)c2[nH]c(C)nc2n(CC(C)C)c1=O`: the LD50 is 19 mg/kg. In the case of `COP(=O)(OC)SC`, the LD50 is 15 mg/kg. Regarding `CCCCCCCCCCCCCCCCOC(=O)Cc1ccc(N(CCCl)CCCl)cc1`, the LD50 was 100 mg/kg. As for `CCCCN(CCCC)C(=O)CF`, the LD50 was 37 mg/kg. As for `Nc1ccc(S(=O)(=O)Nc2ccc(NC(=O)CCC(=O)O)cc2)cc1`, the LD50 is 1500 mg/kg. Regarding `Nc1nccs1`, the LD50 was 480 mg/kg. Turning to `O=C(O)COc1ccc(Cl)cc1Cl`, the median lethal dose (LD50) is 405 mg/kg and 850 mg/kg. Turning to `CCc1ccc(OCC=C(C)CCC=C(C)C)cn1`, the LD50 was 800 mg/kg. With `O=C(OC[C@H]1O[C@@H](OC(=O)c2cc(O)c(O)c(OC(=O)c3cc(O)c(O)c(O)c3)c2)[C@H](OC(=O)c2cc(O)c(O)c(OC(=O)c3cc(O)c(O)c(O)c3)c2)[C@@H](OC(=O)c2cc(O)c(O)c(OC(=O)c3cc(O)c(O)c(O)c3)c2)[C@@H]1OC(=O)c1cc(O)c(O)c(OC(=O)c2cc(O)c(O)c(O)c2)c1)c1cc(O)c(O)c(OC(=O)c2cc(O)c(O)c(O)c2)c1`, the LD50 is 2260 mg/kg. With `NC(=O)c1cc([N+](=O)[O-])cc([N+](=O)[O-])c1`, the LD50 is 1250 mg/kg.

For the compound `CC(=O)c1ccc(O)cc1O`, the LD50 was 2830 mg/kg.

`Cc1cccnc1N`: the LD50 was 100 mg/kg. As for `N#CCCC1(CCC#N)c2ccccc2-c2ccccc21`, the LD50 was 2180 mg/kg. Regarding `O=C(OCCCOCCCOC(=O)c1ccccc1)c1ccccc1`, the LD50 is 9800 mg/kg.

As to `C=CCC1(C2C=CCC2)C(=O)N=C(O)NC1=O` (configuration not stated), the LD50 is 205 mg/kg. On to `OCCN1CCN(CCCN2c3ccccc3Sc3ccc(Cl)cc32)CC1`, for which the LD50 is 318 mg/kg and 210 mg/kg. For `CCCCc1ccc(C(=O)O)nc1`, the LD50 is 480 mg/kg. As to `C=C(C)C(=O)OCCC#N`, the LD50 is 7330 mg/kg.

For `CCC(C)=CCCC(C)=O`, the LD50 is 3570 mg/kg.

As for `CCC(C)NC(=S)C(=S)NC(C)CC` (configuration not stated), the LD50 was 6 mg/kg. Take `O=C(CS)OCCCCOC(=O)CS`: the LD50 is 405 mg/kg.

For the compound `C[C@H]1O[C@@H](n2cc(F)c(=O)[nH]c2=O)[C@H](O)[C@@H]1O`, the LD50 was 3390 mg/kg. As to `O=S(=O)(O)c1cccc2c(/N=N/c3ccc(/N=N/c4ccc(Nc5ccccc5)c5c(S(=O)(=O)O)cccc45)c4ccccc34)cccc12`, the LD50 is 15000 mg/kg. In the case of `CNC(N)=NC(=N)N`, the LD50 was 1750 mg/kg. For `CS(=O)(=O)O`, the LD50 is 6170 mg/kg. On to `C[N+]1(C)CCCC1COC(=O)C(O)(c1ccccc1)C1CCCCC1` (configuration not stated), for which the LD50 was 780 mg/kg. Regarding `Cc1cccnc1-n1c(C)nc2ccccc2c1=O`, the LD50 was 395 mg/kg. For the compound `Clc1ccc(COC(Cn2ccnc2)c2ccc(Cl)cc2Cl)c(Cl)c1` (configuration not stated), the LD50 was 920 mg/kg and 550 mg/kg. As for `Nc1ccc(S(=O)(=O)O)c(N)c1`, the LD50 was 3480 mg/kg. For `CN(C)C1CSSSC1`, the LD50 is 195 mg/kg. On to `CCOC(=O)C(C#N)C(C)=O` (configuration not stated), for which the LD50 was 500 mg/kg. Turning to `C=C(C)C(=O)OCC(C)C`, the 50% lethal dose (LD50) is 9590 mg/kg. For `COc1ccccc1N1CCN(CCCc2ccc3c(c2)CCC(=O)N3)CC1`, the LD50 was 500 mg/kg.

Consider `CCc1c(C)nc2cccc(C)n2c1=O`, for which the LD50 is 690 mg/kg. `CCCCC(CC)COC(=O)C(CC)CCCC` (configuration not stated): the LD50 was 27000 mg/kg. On to `O=C1c2ccccc2N(C(=O)CN2CCOCC2)CN1c1ccccc1`, for which the LD50 is 2220 mg/kg and 2140 mg/kg. Turning to `CN(C)N=Nc1cccc(C(N)=O)c1`, the LD50 is 54 mg/kg. `Cc1cc(-n2c(C)nc3ccccc3c2=O)cc(C)c1O`: the LD50 was 230 mg/kg. For `CC(C(=O)Nc1cc(-c2ccccc2)nn1-c1ccccc1)N(C)C` (configuration not stated), the LD50 was 815 mg/kg. With `Cc1c(Cl)cccc1Nc1ncccc1C(=O)O`, the median lethal dose (LD50) was 335 mg/kg.

As for `CCCOc1ccc(C=CC(=O)OCC)cc1OC`, the LD50 was 978 mg/kg. For `CC(N)CCN` (configuration not stated), the LD50 was 1350 mg/kg. Take `O=C(c1ccc(O)cc1O)c1ccc(O)cc1O`: the LD50 was 1220 mg/kg. Consider `Cc1ccc(S(=O)(=O)N=C=O)cc1`, for which the LD50 was 2230 mg/kg.

Regarding `Nc1cc([N+](=O)[O-])ccc1O`, the LD50 is 2400 mg/kg. Consider `O=C(O)CCCCCCCl`, for which the LD50 was 1800 mg/kg. For the compound `CN1CCC(=C2c3ccccc3Sc3ccccc32)CC1`, the LD50 is 1190 mg/kg and 550 mg/kg. Turning to `CC(=O)Nc1ccc(C)c(NS(=O)(=O)C(F)(F)F)c1`, the LD50 is 2580 mg/kg. For `Clc1ccc(N2CCN(C/C=C/c3ccccc3)CC2)nn1`, the LD50 was 483 mg/kg. Regarding `NCCN1CCOCC1`, the LD50 was 3000 mg/kg. `COC(=O)C1C2C=CC(C2)C1C(=O)OC` (configuration not stated): the LD50 is 1000 mg/kg. In the case of `O=C1CCCO1`, the LD50 was 1540 mg/kg. For the compound `CC(O)c1cccc(N)c1` (configuration not stated), the median lethal dose (LD50) was 3100 mg/kg. With `CC1=CCC(C(C)C)=CC1`, the LD50 is 3650 mg/kg. On to `O=C1CN(/N=C/c2ccc([N+](=O)[O-])o2)C(O)=N1`, for which the LD50 is 1490 mg/kg. `CCCCCCCCCCCO`: the LD50 was 3000 mg/kg. With `CCCCC(CC)COP(=O)(O)O` (configuration not stated), the LD50 was 3450 mg/kg. Turning to `COC(=O)CCC[N+](C)(C)C`, the LD50 was 478 mg/kg. As for `COc1ccccc1N1CCN(CCC(=O)c2ccc(N3CCOCC3)cc2)CC1`, the LD50 was 400 mg/kg. `CCOP(=O)(Oc1ccc([N+](=O)[O-])cc1)SCC` (configuration not stated): the median lethal dose (LD50) was 17.9 mg/kg. Consider `CC(C)(O)CC(C)(O)c1ccc(Cl)cc1` (configuration not stated), for which the LD50 is 1140 mg/kg. On to `O=C(NN=C1SCCS1)c1ccccc1`, for which the LD50 is 72.8 mg/kg. `CCCCNP(=S)(OCC)Sc1ccccc1` (configuration not stated): the LD50 is 300 mg/kg. Take `CNC(=O)Oc1cc([N+](C)(C)C)ccc1C`: the LD50 was 2.5 mg/kg. On to `O=C(OC(=O)C(Cl)Cl)C(Cl)Cl`, for which the LD50 was 2820 mg/kg. With `CCN(CC)C(C)CN1c2ccccc2Sc2ccccc21` (configuration not stated), the LD50 is 1700 mg/kg. Turning to `CCN(CC)CCNC(=O)c1cc(Br)c(N)cc1OC`, the LD50 is 545 mg/kg. As for `CCCCCC1=C(C)CCC1=O`, the LD50 is 2500 mg/kg. Turning to `O=C(O)Cn1c(=O)sc2cccc(Cl)c21`, the LD50 is 3000 mg/kg. `CC(C)NNCS(=O)(=O)O`: the LD50 is 330 mg/kg.

On to `CN1CCCC(CN2c3ccccc3Sc3ccccc32)C1` (configuration not stated), for which the LD50 was 1000 mg/kg. With `CCN(CC)CCN(CCN(CC)CC)n1cc(-c2ccccc2)c2ccccc21`, the LD50 is 800 mg/kg.

In the case of `CC(=O)CCCCn1c(=O)c2c(ncn2C)n(C)c1=O`, the median lethal dose (LD50) is 1170 mg/kg.

As to `N#Cc1ccccc1Cl`, the LD50 is 396 mg/kg. Consider `N#CS/C=C/SC#N`, for which the LD50 was 77 mg/kg. `O=[N+]([O-])c1cccc2nc3ccccc3c(NCCN(CCO)CCO)c12`: the LD50 is 176 mg/kg.

For the compound `CCCOP(=S)(OCCC)Oc1ccc(S(C)=O)cc1` (configuration not stated), the LD50 is 50 mg/kg. For the compound `O=C(NC[P+](CO)(CO)CO)NC[P+](CO)(CO)CO`, the LD50 was 245 mg/kg. `CCN(CC(=O)O)S(=O)(=O)C(F)(F)C(F)(F)C(F)(F)C(F)(F)C(F)(F)C(F)(F)C(F)(F)C(F)(F)F`: the LD50 is 619 mg/kg. `CC(C)(C)C(O)/C(=C\c1ccc(Cl)cc1)n1cncn1` (configuration not stated): the LD50 was 1790 mg/kg. As for `C=CCOCC(CC)(CO)CO`, the LD50 was 4930 mg/kg. `FC(Cl)(C(Cl)(Cl)Cl)C(Cl)(Cl)Cl`: the LD50 is 500 mg/kg. Take `C1COCCOCCOCCOCCO1`: the LD50 was 1410 mg/kg.

For `c1ccc2sc(SNC3CCCCC3)nc2c1`, the LD50 was 5300 mg/kg. For `CC(=O)OCC=C(C)C`, the LD50 is 2900 mg/kg. For `O=C(C(Cl)Cl)C(Cl)(Cl)Cl`, the LD50 is 200 mg/kg.

With `C=Cc1ccc(C=O)o1`, the 50% lethal dose (LD50) was 2080 mg/kg. On to `CCC(=O)Nc1ncc(Cl)s1`, for which the LD50 was 316 mg/kg.

As to `CCOc1ccccc1N1CCN(CCCc2ccc3c(c2)CCC(=O)N3)CC1`, the LD50 was 500 mg/kg. Consider `Cc1c(-c2ccccc2)oc2c(C(=O)OC(C)(C)CN3CCCCC3)cccc2c1=O`, for which the LD50 was 1980 mg/kg.

Turning to `S=c1[nH]cnc2[nH]cnc12`, the LD50 was 277 mg/kg. `CCC(=O)Nc1cccc(OC(=O)NC)c1`: the LD50 was 1000 mg/kg. In the case of `CN(C)CCCN1c2ccccc2Sc2ccccc21`, the LD50 is 350 mg/kg and 400 mg/kg.

Turning to `CNC(=O)ON=C1SC(=NN(C)C)SC1(C)C`, the LD50 was 1.8 mg/kg. Take `COB(OC)OC`: the LD50 is 6140 mg/kg. In the case of `Clc1cc(Cl)c(Cl)c(Cl)c1`, the median lethal dose (LD50) was 1730 mg/kg.
